1 compound from ChEMBL document CHEMBL4396909, “Evolution of HIV-1 reverse transcriptase and integrase dual inhibitors: Recent advances and developments” (Eur J Med Chem, 2019) can be followed below.

This assay deals with Human immunodeficiency virus 1. The assay is described as follows: Antiviral activity against HIV-1 infected in HEK293 cells preincubated for 4 hrs with cell followed by viral infection measured after 24 hrs by luciferase reporter gene assay. Type of assay: functional, organism-based. The note with it: Human immunodeficiency virus 1, HEK293.

Take `O=C(O)C(=O)CC(=O)c1cc(OCc2ccccc2)cc(OCc2ccccc2)c1`: inhibition was half-maximal at 0.48 µM (IC50).
